Reference: patent US20120016011A1, “RNA Interference Mediated Inhibition of Connective Tissue Growth Factor (CTGF) Gene Expression Using Short Interfering Nucleic Acid (siNA)” (Merck Sharp & Dohme Corp., priority 2009, published 2012)
[invAb] = inverted abasic unit; m = 2'-O-methyl; r = 2'-OH (RNA); f = 2'-fluoro

How the values were obtained:
[1] = tested on: CTGF mRNA; test: CTGF mRNA knockdown (Taqman RT-PCR) after siNA transfection of mouse NIH 3T3 cells; assay type: cell-based; settings: mouse NIH3T3 cells, 10 nM siNA, 24 hrs, average of 3 experiments, vs non-targeting control
Method: NIH 3T3 (mouse; ATCC cat# CRL-1658): Cells were cultured at 37° C. in the presence of 5% CO2 and grown in Dulbecco's modified Eagle's medium (DMEM) with 4 mM L-glutamine adjusted to contain 1.5 g/L sodium bicarbonate and 4.5 g/L glucose and supplemented with fetal bovine serum at a final concentration of 10%, 100 μg/mL of streptomycin, and 100 U/mL penicillin.
(§1) Cells were plated in all wells of a tissue-culture treated, 96-well plate at a final count of 5000 cells/well in […], of the appropriate culture media. The cells were cultured for 24 hours after plating at 37° C. in the presence of 5% CO2.
(§2) After 24 hours, complexes containing siNA and RNAiMax were created as follows: A solution of RNAiMax diluted 33-fold in OPTI-MEM was prepared. In parallel, solutions of the siNAs for testing were prepared to a final concentration of 120 nM in OPTI-MEM. After incubation of RNAiMax/OPTI-MEM solution at room temperature for 5 min, an equal volume of the siNA solution and the RNAiMax solution were added together for each of the siNAs.
(§3) This solution was incubated at room temperature for 20 minutes. After incubation, 20 uL of the solution was added to each of the relevant wells. The final concentration of siNA in each well was 10 nM and the final volume of RNAiMax in each well was 0.3 ul.
(§4) The time of incubation with the RNAiMax-siNA complexes was 24 hours and there was no change in media between transfection and harvesting, unless otherwise indicated.
(§5) RNA was extracted from a 96-well plate using the TaqMan® Gene Expression Cells-to-CT™ Kit (Cat# 4399002) with a modified protocol. Briefly, a 60 uL (1 plate) or 110 uL (2 plates) of the Lysis Solution with DNase I was dispensed into each well of the Lysis Buffer Plate (twin.tec full skirt plate). The lysis buffer and stop plates were stored at 4° C. until the cells were washed.
(§6) The plate was spun at 1100 rpm for 5 minutes. The culture medium was aspirated and discarded from the wells of the culture plate. The lysis was performed automatically using a BioMek FX instrument and method. After the Biomek method was completed, the lysis plate was incubated for 2 min. at room temperature. The lysis plate can be stored for 2 hours at 4° C., or at −20° C. or −80° C. for two months.
(§7) Each well of the reverse transcription plate required 10 uL of 2× reverse transcriptase Buffer, 1 uL of 20× reverse transcription enzyme and 2 uL of nuclease-free water. The reverse transcription master mix was prepared by mixing 2× reverse transcription buffer, 20× reverse transcription enzyme mix, and nuclease-free water. 13 uL of the reverse transcription master mix was dispensed into each well of the reverse transcription plate (semi-skirted). A separate reverse transcription plate was prepared for each cell plate. The plate was loaded onto a Biomek NX or Biomek FX Dual -96 and the Biomek method was run. The program is programmed to automatically added 7 uL of lysate from the cell lysis procedure described above into each well of the reverse transcription plate. The plate is sealed and spun on a centrifuge (1000 rpm for 30 seconds) to settle the contents to the bottom of the reverse transcription plate. The plate is placed in a thermocycler at 37° C. for 60 min, 95° C. for 5 min, and 4° C. until the plate is removed from the thermocycler. Upon removal, if not used immediately, the plate was frozen at −20° C.
(§8) A series of probes and primers were used to detect the various mRNA transcripts of the genes of β-Actin (human cell line only), and of CTGF and GAPDH in mouse and human cell lines. All Taqman probes and primers for the experiments here-in described were supplied as pre-validated sets by Applied Biosystems, Inc. (see Table 3).
The assays were performed on an ABI 7900 instrument, according to the manufacturer's instructions. A TaqMan Gene Expression Master Mix (provided in the Cells-to-CT™, Applied Biosystems, Cat # 4399002) was used. […]

[2] = tested on: CTGF mRNA; test: CTGF mRNA knockdown (Taqman RT-PCR) after siNA transfection of human NHLF cells; assay type: cell-based; settings: 10 nM siNA, 24 hrs, average of 3 experiments, vs non-targeting control
Method: NHLF (Normal human lung fibroblasts; Lonza cat# CC-2512): Cells were cultured at 37° C. in the presence of 5% CO2 and grown in Fibroblast Basal Medium (Lonza cat# CC-3132) supplemented with 2% FBS and growth factors (provided with the kit) and 100 μg/mL of streptomycin and 100 U/mL penicillin.
as §1, §2, §3, §4, §5, §6, §7, §8
The assays were performed on an ABI 7900 instrument, according to the manufacturer's instructions. A TaqMan Gene Expression Master Mix (provided in the Cells-to-CT™, Applied Biosystems, Cat # 4399002) was used. The PCR reactions were carried out at 50° C. for 2 min, 95° C. for 20 min followed by 40 cycles at 95° C. for 15 secs and 60° C. for 1 min. […]

Substance | % KD Mouse [1] [%] | % KD Human [2] [%]
48071-DC: siNA duplex; sense SEQ ID NO: 107 B ccAAcuAuGAuGcGAGccA TTB; antisense SEQ ID NO: 108 UGGcucGcAucAuAGuuGGUU (sense CCAACUAUGAUGCGAGCCATT; antisense UGGCUCGCAUCAUAGUUGGUU; sense: DNA at AGT, 2'-fluoro at CU, [invAb] at 5' end, 3' end, backbone not given here; antisense: sugars from the 5' end rrrfffmfmffmfmmffmmmm, backbone not given here) | 21 ± 5 | 30 ± 15
48060-DC: siNA duplex; sense SEQ ID NO: 85 B ucuGucAAccucAGAcAcu TTB; antisense SEQ ID NO: 86 AGUGucuGAGGuuGAcAGAUU (sense UCUGUCAACCUCAGACACUTT; antisense AGUGUCUGAGGUUGACAGAUU; sense: DNA at AGT, 2'-fluoro at CU, [invAb] at 5' end, 3' end, backbone not given here; antisense: sugars from the 5' end rrrmfffmmmmffmmfmmmmm, backbone not given here) | 74 ± 3 | 64 ± 8
48076-DC: siNA duplex; sense SEQ ID NO: 117 B AcAGuAGcAcAuuAAuuuA TTB; antisense SEQ ID NO: 118 UAAAuuAAuGuGcuAcuGuUU (sense ACAGUAGCACAUUAAUUUATT; antisense UAAAUUAAUGUGCUACUGUUU; sense: DNA at AGT, 2'-fluoro at CU, [invAb] at 5' end, 3' end, backbone not given here; antisense: sugars from the 5' end rrrmffmmfmfmffmffmfmm, backbone not given here) | 84 ± 1 | −3 ± 1
48049-DC: siNA duplex; sense SEQ ID NO: 63 B cGuGuGcAccGccAAAGAu TTB; antisense SEQ ID NO: 64 AUCuuuGGcGGuGcAcAcGUU (sense CGUGUGCACCGCCAAAGAUTT; antisense AUCUUUGGCGGUGCACACGUU; sense: DNA at AGT, 2'-fluoro at CU, [invAb] at 5' end, 3' end, backbone not given here; antisense: sugars from the 5' end rrrfffmmfmmfmfmfmfmmm, backbone not given here) | −9 ± 6 | 27 ± 2
48070-DC: siNA duplex; sense SEQ ID NO: 105 B AcuGGuuucGAGAcAGuuu TTB; antisense SEQ ID NO: 106 AAAcuGucucGAAAccAGuUU (sense ACUGGUUUCGAGACAGUUUTT; antisense AAACUGUCUCGAAACCAGUUU; sense: DNA at AGT, 2'-fluoro at CU, [invAb] at 5' end, 3' end, backbone not given here; antisense: sugars from the 5' end rrrffmffffmmmmffmmfmm, backbone not given here) | 56 ± 2 | 9 ± 21
48068-DC: siNA duplex; sense SEQ ID NO: 101 B uGGuuucGAGAcAGuuuAc TTB; antisense SEQ ID NO: 102 GUAAAcuGucucGAAAccAUU (sense UGGUUUCGAGACAGUUUACTT; antisense GUAAACUGUCUCGAAACCAUU; sense: DNA at AGT, 2'-fluoro at CU, [invAb] at 5' end, 3' end, backbone not given here; antisense: sugars from the 5' end rrrmmffmffffmmmmffmmm, backbone not given here) | 65 ± 3 | 12 ± 22
48067-DC: siNA duplex; sense SEQ ID NO: 99 B GGGucAAGcuGccuGGGAA TTB; antisense SEQ ID NO: 100 UUCccAGGcAGcuuGAcccUU (sense GGGUCAAGCUGCCUGGGAATT; antisense UUCCCAGGCAGCUUGACCCUU; sense: DNA at AGT, 2'-fluoro at CU, [invAb] at 5' end, 3' end, backbone not given here; antisense: sugars from the 5' end rrrffmmmfmmfffmmfffmm, backbone not given here) | 26 ± 5 | −3 ± 31
48044-DC: siNA duplex; sense SEQ ID NO: 53 B GuGuGcAccGccAAAGAuG TTB; antisense SEQ ID NO: 54 CAUcuuuGGcGGuGcAcAcUU (sense GUGUGCACCGCCAAAGAUGTT; antisense CAUCUUUGGCGGUGCACACUU; sense: DNA at AGT, 2'-fluoro at CU, [invAb] at 5' end, 3' end, backbone not given here; antisense: sugars from the 5' end rrrffffmmfmmfmfmfmfmm, backbone not given here) | −18 ± 5 | −16 ± 8
48043-DC: siNA duplex; sense SEQ ID NO: 51 B GAcAuAccGAGcuAAAuuc TTB; antisense SEQ ID NO: 52 GAAuuuAGcucGGuAuGucUU (sense GACAUACCGAGCUAAAUUCTT; antisense GAAUUUAGCUCGGUAUGUCUU; sense: DNA at AGT, 2'-fluoro at CU, [invAb] at 5' end, 3' end, backbone not given here; antisense: sugars from the 5' end rrrfffmmfffmmfmfmffmm, backbone not given here) | 48 ± 0 | 57 ± 7
48072-DC: siNA duplex; sense SEQ ID NO: 109 B AGuGuGcAcuGccAAAGAu TTB; antisense SEQ ID NO: 110 AUCuuuGGcAGuGcAcAcuUU (sense AGUGUGCACUGCCAAAGAUTT; antisense AUCUUUGGCAGUGCACACUUU; sense: DNA at AGT, 2'-fluoro at CU, [invAb] at 5' end, 3' end, backbone not given here; antisense: sugars from the 5' end rrrfffmmfmmfmfmfmffmm, backbone not given here) | 14 ± 6 | −8 ± 12
48040-DC: siNA duplex; sense SEQ ID NO: 45 B GAGuGGAGcGccuGuuccA TTB; antisense SEQ ID NO: 46 UGGAAcAGGcGcuccAcucUU (sense GAGUGGAGCGCCUGUUCCATT; antisense UGGAACAGGCGCUCCACUCUU; sense: DNA at AGT, 2'-fluoro at CU, [invAb] at 5' end, 3' end, backbone not given here; antisense: sugars from the 5' end rrrmmfmmmfmffffmfffmm, backbone not given here) | −1 ± 3 | 13 ± 18
